# Reference: patent publication US20240398764A1, “METHODS OF TREATING DISEASES ASSOCIATED WITH SENESCENT CELL ACCUMULATION” (University of Florida Research Foundation, Incorporated, priority 2021, published 2024)
# Experiments:
# [1] = test system: normal non-senescent WI-38 fibroblast cells (Non-SnCs); experiment: Viability of non-senescent WI-38 fibroblast cells; type: cell-based; details: 72 hr incubation; vs ABT263
# Source text: (§1) FIG. 2A depicts immunoblots showing degradation of Bcl-xl and Bcl-2 in non-senescent WI-38 fibroblast cells (Non-SnCs) treated with varying concentrations of 753b. 3-actin was used as a loading control. FIG. 2B depicts viability of Non-SnCs treated with varying concentrations of 753b or ABT263. FIG. 2C depicts immunoblots showing degradation of Bcl-xl and Bcl-2 in ionizing radiation-induced senescent WI-38 fibroblast cells (IR-SnCs) treated with varying concentrations of 753b. 3-actin was used as a loading control. FIG. 2D depicts viability of IR-SnCs treated with varying concentrations of 753b or ABT263. FIG. 2E depicts immunoblots showing degradation of Bcl-xl and Bcl-2 in human platelets treated with varying concentrations of 753b. FIG. 2F depicts viability of human platelets treated with varying concentrations of 753b or ABT263.
# (§2) The potency of 753b in degrading Bcl-xl/2 was evaluated by immunoblots after the cells or platelets were treated with different concentrations of 753b for 16 h ([…]). 753b is more cytotoxic to IR-SnCs but less toxic to Non-SnCs and platelets. The viability of Non-SnCs, IR-SnCs and platelets was measured 72 hr (Non-SnCs and IR-SnCs) and 48 hr (platelets) after they were incubated with increasing concentrations of 753b or ABT263 compared to cells/platelets with vehicle.
# Bcl-xl [2] = target: T1, Bcl-xl (Homo sapiens, UniProt Q07817); experiment: Immunoblot of Bcl-xl degradation in human platelets; type: cell-based; set-up: endogenous in cells; host or cells: human platelets; details: different concentrations, 16 h
# Source text: as §1, §2
# [3] = test system: senescent cells induced by STZ/HFD in the liver; experiment: Senescent cell clearance in livers of STZ/HFD mice (p16/p21 mRNA, SA-β-gal staining); type: in vivo, C57BL6 mice; details: 5 mg/kg twice a week IP
# Protocol: GAPDH was used as a loading control. FIG. 6B depicts the relative expression of p16 and p21 at mRNA levels in the livers of STZ/HFD mice treated with 753b or vehicle control. *p<0.05. FIGS. 6C to 6D show senescence-associated beta-galactosidase (SA-β-gal) stained livers of STZ/HFD mice treated with vehicle control (FIG. 6C) or 753b (FIG. 6D). Scale bar: […].
# Experimental design: C57BL6 mice were injected with Streptozotocin (STZ) at postnatal day 2 to induce diabetes and then fed with HFD from postnatal day 30 till the end of the experiments (FIG. 5). Half of the mice started receiving vehicle and the others receiving 753b (5 mg/kg) treatment on postnatal day 45 twice a week by IP injection till the end of the experiments. A group of the mice were euthanized at postnatal day 90 (or day 45 after the initiation of the treatment) for analysis of senescent cell accumulation and steatosis. Another group of the mice were euthanized at postnatal day 150 (or day 105 after the initiation of the treatment) for analysis of liver fibrosis and cancer.
# 753b effectively clears senescent cells induced by STZ/HFD in the liver. The liver tissues were collected from mice at postnatal day 90 (p90 or 45 days after treatment) for the analyses. […] Data were means±SD of triplicate experiments.
# Bcl-xl [4] = target: T1, Bcl-xl; experiment: Immunoblot of Bcl-xl degradation in HEK293T cells; type: cell-based; set-up: endogenous in cells; details: different concentrations for 16 h, or 1 μM for various time points
# Protocol: FIG. 1A depicts immunoblots showing degradation of Bcl-xl and Bcl-2 in HEK293T cells treated with various concentrations of 753b for 16 hours. FIG. 1B depicts immunoblots showing degradation of Bcl-xl and Bcl-2 in HEK293T cells treated with 1 μM 753b for various durations. 3-actin was used as a loading control.
# The potency of 753b in degrading Bcl-xl/2 was evaluated in 293T cells by immunoblots after the cells were treated with different concentrations of 753b for 16 h (FIG. 1A) or after the cells were treated with 1 μM 753b for various time points as indicated (FIG. 1B). Representative immunoblots are shown, and β-actin was used as a loading control.
# Bcl-xl [5] = target: T1, Bcl-xl; experiment: Immunoblot of Bcl-xl degradation in WI-38 fibroblast cells (Non-SnCs and IR-SnCs); type: cell-based; set-up: degradation of Bcl-xl and Bcl-2 in non-senescent WI-38 fibroblast cells (Non-SnCs) treated with varying concentrations of 753b; endogenous in cells; host or cells: WI-38 fibroblasts (non-senescent and ionizing-radiation-induced senescent); details: different concentrations, 16 h, dose-dependent
# Source text: as §1, §2
# [6] = test system: normal non-senescent REC (Non-SnC REC); experiment: Viability of Non-SnC REC; type: cell-based; details: 72 hr incubation; vs ABT263
# Protocol: (§3) FIGS. 3A to 3B depicts viability of non-SnC human umbilical vein endothelial cells (HUVEC) and IR-induced SnC HUVEC treated with varying concentrations of ABT263 (FIG. 3A) or 753b (FIG. 3B). FIGS. 3C to 3D depict viability of non-SnC renal epithelial cells (REC), IR-induced SnC REC, and replicative senescent REC treated with varying concentrations of ABT263 (FIG. 3C) or 753b (FIG. 3D).
# (§4) The viability of Non-SnC HUVEC, Non-SnC REC, IR-SnC HUVEC, IR-SnC REC, and Rep-SnC REC was measured 72 hr after they were incubated with increasing concentrations of 753b or ABT263 compared to cells/platelets with vehicle.
# [7] = test system: replicative senescent REC (Rep-SnC REC); experiment: Viability of Rep-SnC REC; type: cell-based; details: 72 hr incubation; vs ABT263
# Protocol: as §3, §4
# [8] = test system: ionizing radiation (IR) induced senescent WI-38 fibroblast cells (IR-SnCs); experiment: Viability of IR-induced senescent WI-38 fibroblast cells; type: cell-based; details: 72 hr incubation; vs ABT263
# Source text: as §1, §2
# [9] = test system: IR-induced senescent human umbilical vein endothelial cells (IR-SnC HUVEC); experiment: Viability of IR-SnC HUVEC; type: cell-based; details: 72 hr incubation; vs ABT263
# Protocol: as §3, §4
# [10] = test system: normal non-senescent HUVEC (Non-SnC HUVEC); experiment: Viability of Non-SnC HUVEC; type: cell-based, human; details: 72 hr incubation; vs ABT263
# Protocol: as §3, §4
# human platelets = experiment: Viability of human platelets; type: cell-based; details: 48 hr incubation; vs ABT263
# Source text: as §1, §2
# [11] = test system: IR-induced senescent renal epithelial cells (IR-SnC REC); experiment: Viability of IR-SnC REC; type: cell-based; details: 72 hr incubation; vs ABT263
# Protocol: as §3, §4
# T1 sequence (Q07817 whole entry): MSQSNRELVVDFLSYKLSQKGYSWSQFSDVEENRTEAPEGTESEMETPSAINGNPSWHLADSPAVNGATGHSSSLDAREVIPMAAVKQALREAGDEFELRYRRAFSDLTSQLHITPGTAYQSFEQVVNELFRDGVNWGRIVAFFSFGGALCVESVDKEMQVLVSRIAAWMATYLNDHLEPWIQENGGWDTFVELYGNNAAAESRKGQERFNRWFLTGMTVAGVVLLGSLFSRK
smiles,measurement,setting,value
Cc1ncsc1-c1ccc([C@H](C)NC(=O)[C@@H]2C[C@@H](O)CN2C(=O)[C@@H](NC(=O)CCCCCCC(=O)N2CCN(C[C@]3(C)CCC(c4ccc(Cl)cc4)=C(CN4CCN(c5ccc(C(=O)NS(=O)(=O)c6ccc(N[C@H](CCN7CCOCC7)CSc7ccccc7)c(S(=O)(=O)C(F)(F)F)c6)cc5)CC4)C3)CC2)C(C)(C)C)cc1 [Compound 753b],Toxicity (viability) to Non-SnCs compared with ABT263,[1],less toxic
same,Bcl-xl degradation in human platelets,Bcl-xl [2],not in human platelets
same,Senescent cell burden in the liver (SA-β-gal staining),[3]; postnatal day 90,reduced senescent cell burden
same,p16 mRNA level in the liver,"[3]; postnatal day 90, Q-RT-PCR",inhibited upregulation
same,p21 mRNA level in the liver,"[3]; postnatal day 90, Q-RT-PCR",inhibited upregulation
same,Bcl-xl degradation,Bcl-xl [4],degrades Bcl-xl and Bcl-2 in a dose- and time-dependent manner
same,Bcl-xl degradation in IR-SnCs,Bcl-xl [5]; IR-induced senescent WI-38 fibroblast cells,degrades Bcl-xl and Bcl-2 in Non-SnCs and IR-SnCs
same,Bcl-xl degradation in Non-SnCs,Bcl-xl [5]; non-senescent WI-38 fibroblast cells,degrades Bcl-xl and Bcl-2 in Non-SnCs and IR-SnCs
same,Toxicity (viability) to Non-SnC REC compared with ABT263,[6],less toxic
same,Senolytic potency (viability) against Rep-SnC REC compared with ABT263,[7],more potent senolytic agent
same,Senolytic potency (viability) against IR-SnCs compared with ABT263,[8],more potent senolytic agent
same,Senolytic potency (viability) against IR-SnC HUVEC compared with ABT263,[9],more potent senolytic agent
same,Toxicity (viability) to Non-SnC HUVEC compared with ABT263,[10],less toxic
same,Toxicity (viability) to human platelets compared with ABT263,human platelets,less toxic
same,Senolytic potency (viability) against IR-SnC REC compared with ABT263,[11],more potent senolytic agent
